Converted amounts (≈) assume the structure as drawn.
How the values were obtained:
Type in all cases: functional
NCI/ADR-RES = assay: Anticancer activity against Homo sapiens (human) NCI/ADR-RES cells after 48 hr by SRB assay
K562 [1] = assay: Growth inhibition of Homo sapiens (human) K562 cells at 10 uM after 48 hr by SRB assay; conditions: K562, 48 h, read-out: GI
HCT-116 = assay: Anticancer activity against Homo sapiens (human) HCT116 cells after 48 hr by SRB assay; conditions: HCT-116, 48 h
SW-620 = assay: Anticancer activity against Homo sapiens (human) SW620 cells after 48 hr by SRB assay; conditions: SW-620, 48 h
K562 [2] = assay: Anticancer activity against Homo sapiens (human) K562 cells after 48 hr by SRB assay; conditions: K562, 48 h
OVCAR-4 = assay: Growth inhibition of Homo sapiens (human) OVCAR4 cells at 10 uM after 48 hr by SRB assay; conditions: OVCAR-4, 48 h, read-out: GI
SK-MEL-28 = assay: Anticancer activity against Homo sapiens (human) SK-MEL-28 cells after 48 hr by SRB assay; conditions: SK-MEL-28, 48 h
Candida albicans = assay: Antimicrobial activity against Candida albicans ATCC2091 assessed as growth inhibition after 48 hr by two-fold serial dilution method; conditions: ATCC2091, 48 h
RXF 393 = assay: Growth inhibition of Homo sapiens (human) RXF393 cells at 10 uM after 48 hr by SRB assay; conditions: RXF 393, 48 h, read-out: GI
A498 [3] = assay: Growth inhibition of Homo sapiens (human) A498 cells at 10 uM after 48 hr by SRB assay; conditions: A498, 48 h, read-out: GI
Escherichia coli = assay: Antimicrobial activity against Escherichia coli ATCC8739 assessed as diameter of growth inhibition zone at 1 mg/ml after 24 hr by agar cup diffusion method; conditions: ATCC8739, 24 h, read-out: IZ
HCC 2998 = assay: Anticancer activity against Homo sapiens (human) HCC2998 cells after 48 hr by SRB assay; conditions: HCC 2998, 48 h
A498 [4] = assay: Anticancer activity against Homo sapiens (human) A498 cells after 48 hr by SRB assay; conditions: A498, 48 h
CAKI-1 = assay: Anticancer activity against Homo sapiens (human) CAKI-1 cells after 48 hr by SRB assay; conditions: CAKI-1, 48 h
SF-295 = assay: Anticancer activity against Homo sapiens (human) SF295 cells after 48 hr by SRB assay; conditions: SF-295, 48 h
MDA-MB-231 [5] = assay: Anticancer activity against Homo sapiens (human) MDA-MB-231/ATCC cells after 48 hr by SRB assay; conditions: MDA-MB-231, 48 h
A549 = assay: Growth inhibition of Homo sapiens (human) A549/ATCC cells at 10 uM after 48 hr by SRB assay; conditions: A549, 48 h, read-out: GI
RPMI-8226 = assay: Anticancer activity against Homo sapiens (human) RPMI8226 cells after 48 hr by SRB assay; conditions: RPMI-8226, 48 h
OVCAR-5 = assay: Anticancer activity against Homo sapiens (human) OVCAR5 cells after 48 hr by SRB assay; conditions: OVCAR-5, 48 h
TK-10 = assay: Growth inhibition of Homo sapiens (human) TK10 cells at 10 uM after 48 hr by SRB assay; conditions: TK-10, 48 h, read-out: GI
Hs-578T = assay: Growth inhibition of Homo sapiens (human) Hs 578T cells at 10 uM after 48 hr by SRB assay; conditions: read-out: GI
Pseudomonas aeruginosa = assay: Antimicrobial activity against Pseudomonas aeruginosa ATCC9027 assessed as diameter of growth inhibition zone at 1 mg/ml after 24 hr by agar cup diffusion method; conditions: ATCC9027, 24 h, read-out: IZ
OVCAR-3 [6] = assay: Anticancer activity against Homo sapiens (human) OVCAR3 cells after 48 hr by SRB assay; conditions: OVCAR-3, 48 h
SF-539 = assay: Anticancer activity against Homo sapiens (human) SF539 cells after 48 hr by SRB assay; conditions: SF-539, 48 h
SR = assay: Growth inhibition of Homo sapiens (human) SR cells at 10 uM after 48 hr by SRB assay; conditions: read-out: GI
NCI-H226 = assay: Growth inhibition of Homo sapiens (human) NCI-H226 cells at 10 uM after 48 hr by SRB assay; conditions: NCI-H226, 48 h, read-out: GI
UACC-257 = assay: Growth inhibition of Homo sapiens (human) UACC257 cells at 10 uM after 48 hr by SRB assay; conditions: UACC-257, 48 h, read-out: GI
NCI-H522 = assay: Growth inhibition of Homo sapiens (human) NCI-H522 cells at 10 uM after 48 hr by SRB assay; conditions: NCI-H522, 48 h, read-out: GI
SF-268 = assay: Growth inhibition of Homo sapiens (human) SF268 cells at 10 uM after 48 hr by SRB assay; conditions: SF-268, 48 h, read-out: GI
MDA-MB-468 = assay: Anticancer activity against Homo sapiens (human) MDA-MB-468 cells after 48 hr by SRB assay; conditions: MDA-MB-468, 48 h
OVCAR-3 [7] = assay: Growth inhibition of Homo sapiens (human) OVCAR3 cells at 10 uM after 48 hr by SRB assay; conditions: OVCAR-3, 48 h, read-out: GI
MOLT-4 = assay: Anticancer activity against Homo sapiens (human) MOLT4 cells after 48 hr by SRB assay; conditions: MOLT-4, 48 h
MDA-MB-231 [8] = assay: Growth inhibition of Homo sapiens (human) MDA-MB-231/ATCC cells at 10 uM after 48 hr by SRB assay; conditions: MDA-MB-231, 48 h, read-out: GI
[9] = read-out: LC50 (the source's name)

For `Cc1c(C(N)=O)sc2nc(C)n(/N=c3\scc(-c4ccccc4)n3Cc3ccccc3)c(=O)c12`, the GI50 (NCI/ADR-RES) was 2.9 µM, the TGI (NCI/ADR-RES) was 29.2 µM and the CC50 (NCI/ADR-RES; [9]) was over 100 µM. The inhibition of growth at 10 µM (K562 [1]) was 91.6%, the GI50 (HCT-116) was 2.13 µM and the TGI (HCT-116) was 10 µM. It also gave a CC50 (HCT-116; [9]) of over 100 µM, a GI50 (SW-620) of 3.16 µM and a TGI (SW-620) of over 100 µM. It also gave a CC50 (SW-620; [9]) of over 100 µM, a GI50 (K562 [2]) of 8.89 µM and a TGI (K562 [2]) of over 100 µM. The CC50 (K562 [2]; [9]) was over 100 µM, the inhibition of growth at 10 µM (OVCAR-4) was 66.5% and the GI50 (SK-MEL-28) was 3.56 µM. It also gave a TGI (SK-MEL-28) of over 100 µM, a CC50 (SK-MEL-28; [9]) of over 100 µM and an MIC (Candida albicans) of 125 µg/mL (≈ 256 µM). It also gave an inhibition of growth at 10 µM (RXF 393) of 105%, an inhibition of growth at 10 µM (A498 [3]) of 99.3% and a zone of inhibition at 1000 µg/mL (Escherichia coli) of 15 mm. It also gave a GI50 (HCC 2998) of 3.05 µM, a TGI (HCC 2998) of over 100 µM and a CC50 (HCC 2998; [9]) of over 100 µM. For the same compound, the GI50 (A498 [4]) was 2.53 µM, the TGI (A498 [4]) was 8.97 µM and the CC50 (A498 [4]; [9]) was over 100 µM. The GI50 (CAKI-1) was 3.35 µM, the TGI (CAKI-1) was over 100 µM and the CC50 (CAKI-1; [9]) was over 100 µM. It also gave a GI50 (SF-295) of 2.93 µM, a TGI (SF-295) of over 100 µM and a CC50 (SF-295; [9]) of over 100 µM. For the same compound, the GI50 (MDA-MB-231 [5]) was 3.28 µM, the TGI (MDA-MB-231 [5]) was 8.41 µM and the CC50 (MDA-MB-231 [5]; [9]) was over 100 µM. For the same compound, the inhibition of growth at 10 µM (A549) was 100%, the GI50 (RPMI-8226) was 13.9 µM and the TGI (RPMI-8226) was over 100 µM. It also gave a CC50 (RPMI-8226; [9]) of over 100 µM, a GI50 (OVCAR-5) of 4.33 µM and a TGI (OVCAR-5) of over 100 µM. It also gave a CC50 (OVCAR-5; [9]) of over 100 µM, an inhibition of growth at 10 µM (TK-10) of 47.2% and an inhibition of growth at 10 µM (Hs-578T) of 115%. For the same compound, the zone of inhibition at 1000 µg/mL (Pseudomonas aeruginosa) was 17 mm, the GI50 (OVCAR-3 [6]) was 2.28 µM and the TGI (OVCAR-3 [6]) was 8.58 µM. It also gave a CC50 (OVCAR-3 [6]; [9]) of over 100 µM, a GI50 (SF-539) of 4.02 µM and a TGI (SF-539) of over 100 µM. For the same compound, the CC50 (SF-539; [9]) was over 100 µM, the inhibition of growth at 10 µM (SR) was 87.2% and the inhibition of growth at 10 µM (NCI-H226) was 69.1%. It also gave an inhibition of growth at 10 µM (UACC-257) of 95.2%, an inhibition of growth at 10 µM (NCI-H522) of 75.1% and an inhibition of growth at 10 µM (SF-268) of 78.7%. The GI50 (MDA-MB-468) was 2.65 µM, the TGI (MDA-MB-468) was over 100 µM and the CC50 (MDA-MB-468; [9]) was over 100 µM. It also gave an inhibition of growth at 10 µM (OVCAR-3 [7]) of 95.7%, a GI50 (MOLT-4) of 24.6 µM and a TGI (MOLT-4) of over 100 µM. It also gave a CC50 (MOLT-4; [9]) of over 100 µM and an inhibition of growth at 10 µM (MDA-MB-231 [8]) of 57%.

— ChEMBL document CHEMBL3046848, “Synthesis and biological evaluation of novel series of thieno[2,3-d]pyrimidine derivatives as anticancer and antimicrobial agents” (2013)
